Laboratory results as given in patent publication US20220073592A1, “SYNTHETIC AND RECOMBINANT COLLAGEN PEPTIDES HAVING BIOLOGICAL ACTIVITY” (GELITA AG, priority 2018, published 2022).
Several values for one entry are separate records, joined by “and”; a condition that tells them apart may be missing. Equal values may be shown once. Where no end group is shown, it is not given here. [ ]: non-standard residue; d: D form. Hyp = O=C(O)[C@@H]1C[C@@H](O)CN1

What was measured:
Assay type in all cases: cell-based
human chondrocytes [1] = assay: Blyscan glycosaminoglycan assay, proteoglycan synthesis by chondrocytes; settings: 0.5 mg/ml; for increase in collagen synthesis (in the proteoglycan assay, chondrocytes): hydroxylated peptides
human chondrocytes [2] = assay: Sircol collagen assay, collagen synthesis by chondrocytes; settings: 0.5 mg/ml peptide, three weeks stimulation
Procedure: (§1) The human cells used were obtained from tebu-bio GmbH, Offenbach, Germany. The chondrocytes (Cat. No. 402-05a) or dermal fibroblasts (Cat. No. 106-05a) were first sown in 12-well culture plates and cultured at 37° C., 5% CO2 in Ham's F12 medium, to which 10% fetal calf serum, 20 U/ml penicillin-streptomycin and 50 μg/ml ascorbic acid were added. On every other day, the culture medium was replaced by new culture medium until the cells had reached 80% confluence. […] To investigate the collagen metabolism, the amount of newly synthesized collagen was determined after stimulating the cells with 0.5 mg/ml BCP for three weeks. The synthesized collagen was isolated using the Sircol assay (Article No. 054S5000, 2019, tebu-bio, Offenbach, Germany, or Biocolor Ltd., UK) according to the manufacturer's instructions. In brief, the culture medium was initially discarded and the adherent cell layers were digested with 0.1 mg pepsin solution in 0.5 M acetic acid at 4° C. overnight. The cell suspensions were neutralized by adding 100 μl of an acid-neutralizing reagent. The synthesized collagen was then separated off by adding 200 μl of an isolation and concentration solution with vigorous shaking at 4° C. overnight. After centrifugation (12,000 rpm, 10 min) and discarding the supernatant, the isolated collagen was resuspended in 1 ml of Sircol dye solution. After 30 minutes of shaking and another centrifugation, the collagen pellet was covered with 750 μl of cold acidic solid washing reagent. After another centrifugation, the supernatant was again discarded and the enriched collagen was taken up in 250 μl of alkaline solution. In each case 200 μl of the sample solutions were used for photometric quantification of the synthesized collagen. The absorbance was measured at a wavelength of 492 nm. The amount of collagen synthesized in each case was determined on the basis of standardized collagen solutions.

human dermal fibroblasts [3] = assay: Blyscan glycosaminoglycan assay, proteoglycan synthesis by dermal fibroblasts; settings: 0.5 mg/ml, two weeks stimulation; for increase in the synthesis of proteoglycans by dermal fibroblasts compared to untreated controls: hydroxylated peptides
Procedure: The human cells used were obtained from tebu-bio GmbH, Offenbach, Germany. The chondrocytes (Cat. No. 402-05a) or dermal fibroblasts (Cat. No. 106-05a) were first sown in 12-well culture plates and cultured at 37° C., 5% CO2 in Ham's F12 medium, to which 10% fetal calf serum, 20 U/ml penicillin-streptomycin and 50 μg/ml ascorbic acid were added. On every other day, the culture medium was replaced by new culture medium until the cells had reached 80% confluence. […] The Blyscan glycosaminoglycan assay (Article No. 054B3000, 2019, tebu-bio, Offenbach, Germany, or Biocolor Ltd., UK) was used to determine proteoglycans. The biosynthesis of proteoglycans was determined after stimulating dermal fibroblasts for two weeks. According to the manufacturer's instructions, after discarding the culture medium, the cell layers were covered with 1 ml of papain extraction solution and incubated for three hours at 65° C. with vigorous shaking. The cell suspensions were then centrifuged (10,000 g, 10 min) and the supernatants were collected. After adding 1 ml of Blyscan dye solution and shaking (30 min), the supernatants were centrifuged again (12,000 rpm, 10 min) and then discarded. The isolated proteoglycan pellets were resuspended in 500 μl of dissociation solution. A photometric determination of the synthesized proteoglycan in 200 μl sample solution was carried out at a wavelength of 656 nm in comparison to untreated control experiments.

human dermal fibroblasts [4] = assay: Sircol collagen assay, collagen synthesis by dermal fibroblasts; settings: 0.5 mg/ml peptide, three weeks stimulation
Procedure: as §1

| Substance | increase in collagen synthesis (in the proteoglycan assay, chondrocytes) (human chondrocytes [1]) | increase in collagen synthesis by chondrocytes compared to untreated controls (human chondrocytes [2]) [%] | increase in the synthesis of proteoglycans by dermal fibroblasts compared to untreated controls (human dermal fibroblasts [3]) [%] | increase in collagen synthesis by dermal fibroblasts compared to untreated controls (human dermal fibroblasts [4]) [%] | increase in the synthesis of proteoglycans by chondrocytes compared to untreated controls (human chondrocytes [1]; non-hydroxylated peptides) [%] | increase in collagen synthesis (in the proteoglycan assay, dermal fibroblasts) (human dermal fibroblasts [3]; non-hydroxylated peptides) [%] |
| --- | --- | --- | --- | --- | --- | --- |
| Gly-Ala-4Hyp-Gly-Lys-Asp-Gly-Val-Arg-Gly-Leu-Thr-Gly-Pro-Ile-Gly-Pro-4Hyp-Gly-Pro-Ala-Gly-Ala-Arg (GA[Hyp]GKDGVRGLTGPIGP[Hyp]GPAGAR) [SEQ ID No. 9, collagen peptide comprising 24 amino acids] | 19% | 24 | 27 | 38 |  |  |
| Gly-Ala-4Hyp-Gly-Pro-Pro-Gly-Pro-4Hyp-Gly-Ala-Arg-Gly-Gln-Ala-Gly-Val-Met-Gly-Phe-4Hyp-Gly-Pro-Lys [SEQ ID No. 10] | 29% | 20 | 25 | 35 |  |  |
| Gly-Pro-4Hyp-Gly-Pro-Ala-Gly-Glu-Lys-Gly-Ala-4Hyp-Gly-Ala-Asp-Gly-Pro-Ala-Gly-Ala-4Hyp-Gly-Thr-Pro-Gly-Pro-Gln-Gly-Ile-Ala-Gly-Gln-Arg-Gly-Val (GP[Hyp]GPAGEKGA[Hyp]GADGPAGA[Hyp]GTPGPQGIAGQRGV) [SEQ ID No. 22, collagen peptide comprising 35 amino acids] | 26% | 46 | 28 | 43 |  |  |
| Gly-Pro-4Hyp-Gly-Pro-Val-Gly-Thr-Lys-Gly-Ile-4Hyp-Gly-Val-Tyr-Gly-Pro-Leu-Gly-Ile-4Hyp-Gly-Thr-Pro-Gly-Pro-Trp-Gly-Ile-Leu-Gly-Thr-Lys-Arg-Gly-Val (GP[Hyp]GPVGTKGI[Hyp]GVYGPLGI[Hyp]GTPGPWGILGTKRGV) [SEQ ID No. 24, collagen peptide comprising 36 amino acids] | 15% and 26% | 26 | 26 | 36 |  |  |
| Gly-Val-4Hyp-Gly-Lys-Tyr-Gly-Val-Arg-Gly-Leu-Thr-Gly-Pro-Ile-Gly-Pro-4Hyp-Gly-Pro-Leu-Gly-Ile-4Hyp-Gly-Trp-Lys-Gly-Phe-Val-Gly-Pro-Thr (GV[Hyp]GKYGVRGLTGPIGP[Hyp]GPLGI[Hyp]GWKGFVGPT) [SEQ ID No. 23, collagen peptide comprising 33 amino acids] | 11% | 19 | 22 | 39 |  |  |
| KGAPGADGPAGAPGTPGPQ [SEQ ID No. 15, collagen peptide comprising 19 amino acids] |  | 31 |  | 23 | 6 | 18 |
| Lys-Gly-Ala-4Hyp-Gly-Ala-Asp-Gly-Pro-Ala-Gly-Ala-4Hyp-Gly-Thr-Pro-Gly-Pro-Gln (KGA[Hyp]GADGPAGA[Hyp]GTPGPQ) [SEQ ID No. 21, collagen peptide comprising 19 amino acids] | 22% | 55 | 27 | 36 |  |  |
